Measurements: patent US20030220524A1, “Sulfur containing compounds” (priority 2000, published 2003)
Where “and” joins values, the source holds several entries; their conditions need not be identical. Equal entries are not always repeated. Where two headings read alike, the source gives them in different places. Blank lines part the entries; values can stand above or below the compound they belong to.

Key:
[1] = tested on: Normal bone marrow (mononucleated, T-cell depleted); assay: MTT assay; assay type: cell-based; conditions: Normal bone marrow, 48 h, read-out: MTT50
Protocol: (§1) All cell lines were assayed as asynchronously growing cells. Leukemic cell lines, OCI-AML-2, OCI-AML-3 (referred to hereafter as AML-2 and AML-3, respectively), NB-4, KK, B1, G2, and W1 were cultured in alpha-minimal essential medium (α-MEM) (Princess Margaret Hospital Media Services) supplemented with 10% fetal bovine serum (FBS) (Sigma, St. Louis, Mo.). Non-transformed, diploid fibroblast lines WI38 and IMR90, were cultured in α-MEM and MEM F-15, respectively supplemented with 10% FBS. Media for IMR90 cells was also supplemented with 1.5 g/L bicarbonate and 1 mM pyruvate. Breast tumour cell lines, MDA-231, SK-BR-3, MCF-7, ZR-751, and melanoma tumour cell lines, WM9, WM983, WM793, 1232, were grown in α-MEM supplemented with 10% fetal bovine serum. Prostate tumour cell lines, DU145 and PC-3, were grown in RPMI 1640 media supplemented with 10% FBS. All cell lines were cultured in the presence of penicillin/streptomycin. Mononucleated cells were isolated from normal bone marrow using Ficoll hypaque and then T-cell depleted. T-cell depletion was performed by incubating the mononucleated bone marrow cells in α-MEM at a concentration of 2×10^7 cells/mL with 10% absor FBS and 10% (v/v) sheep red blood cells for 4 to 16 h. Absor FBS was prepared beforehand by heating FBS at 56° C. for 1 h, incubating with sheep red blood cells at 0.5% (v/v) for 1 h and then filtering the FBS with a […]. The T-cell depleted, mononucleated cells were recovered using Ficoll hypaque and were maintained in α-MEM supplemented with 20% FBS and 10% 5637 ? nditioned media. 5637 conditioned media ? s previously harvested from confluent 5637 cells after a 3 day incubation. Normal bone marrow from bone marrow transplant donor was collected following informed consent according to institutional guidelines.
(§2) Approximately 20 mg of each compound was dissolved in 5 mL of ACS grade acetone (Sigma) using a 5 mL volumetric flask. Stock solutions of the compounds were stored in the dark at −20° C. Compounds were diluted prior to each experiment.
(§3) Adherent cells were seeded at 67×10^3 cells/mL in a 96 well plate (Falcon, Mississauga, Ontario) the day prior to exposure to compound. Suspension cells were seeded at 27×10^4 cells/mL in a 96 well plate the day of exposure to compound. Mononucleated, T-cell depleted normal bone marrow cells were seeded at 67×10^4 cells/mL in a 96 well plate the day of exposure to compound. Compounds and solvent control were added to cells and assayed in triplicate or sextuplet. Following 48 h of incubation at 37° C. with 5% CO2, 40 μL of a 5 mg/mL solution of 3-[4,5-dimethylthiazol-2-yl]-2,5-diphenyltetrazolium bromide (MTT) substrate (Sigma) in Dulbecco's phosphate-buffered saline (D-PBS) was added. After 4 h of incubation at 37° C. with 5% CO2, the resulting violet formazan precipitate was solubilized by the addition of 80 μL of a 0.01 M HCI, 10% sodium dodecyl sulfate (SDS; Sigma) solution overnight at 37° C. with 5% CO2. The plates were then analyzed using the BioRad Benchmark Microplate Reader (BioRad Laboratories, Hercules, Calif.) at 570 nm to determine the optical density of the samples. MTT data was analyzed using Prism 3.0 (GraphPad Software, Inc., San Diego, Calif.) by the Chou-Talalay method. MTT graphs shown are a representative experiment.
(§4) Adherent cells were seeded at 67×10^3 cells/mL in a 96 well plate (Falcon, Mississauga, Ontario) the day prior to exposure to compound. Suspension cells were seeded at 27×10^4 cells/mL in a 96 well plate the day of exposure to compound. Mononucleated, T-cell depleted normal bone marrow cells were seeded at 67×10^4 cells/mL in a 96 well plate the day of exposure to compound. Compounds and solvent control were added to cells and assayed in triplicate or sextuplet. […]

Aspergillus niger [2] = assay: Antifungal paper disk test, diameter of clear zone; assay type: cell-based; conditions: for zone of inhibition at 100 µg/disc: 100 μg/disk, read-out: Diameter (mm) of clear Zone A. niger
Protocol: (§5) Sulfur compounds were tested for antifungal activity against pure cultures of Aspergillus niger and Aspergillus flavus supplied by Ward's Natural Science Ltd (St. Catharines, Ontario, Canada). They were maintained on Sabouraud Dextrose Agar.
(§6) For the test, 6 agar plugs (5 mm diameter) were cut from a 5-8 day old colony and homogenized in distilled, sterilized water (2 ml). A portion of this suspension (0.5 ml) was transferred aseptically to a Petri plate with Sabouraud Dextrose Agar (15 ml) and spread evenly over the entire surface. […] Each test compound was applied to the disks as a solution (50 mg compound/10 ml acetone). Control disks were treated with neat acetone (20 μl). Test plates with fungal homogenates and disks were incubated at 18-20° C. for 2 days. For each test four replicate plates were used. The diameter of the clear zone surrounding the disk was taken as the indicator of antifungal activity.

Aspergillus flavus [3] = assay: Antifungal paper disk test, diameter of clear zone; assay type: cell-based; conditions: for zone of inhibition at 100 µg/disc: 100 μg/disk, read-out: Diameter (mm) of clear Zone A. flavus
Protocol: as §5, §6

B1 leukemic cell line = assay: MTT assay; assay type: cell-based, human; conditions: B1, 48 h, read-out: MTT50
Protocol: as §1, §2, §3, §4

G2 leukemic cell line = assay: MTT assay; assay type: cell-based, human; conditions: 48 h, read-out: MTT50
Protocol: as §1, §2, §3, §4

W1 leukemic cell line = assay: MTT assay; assay type: cell-based, human; conditions: 48 h, read-out: MTT50
Protocol: as §1, §2, §3, §4

KK leukemic cell line [4] = assay: MTT assay; assay type: cell-based, human; conditions: KK, 48 h, read-out: MTT50
Protocol: as §1, §2, §3, §4

AML-3 leukemic cell line [5] = assay: MTT assay; assay type: cell-based, human
Protocol: as §1, §2, §3, §4

Aspergillus niger [6] = assay: Antifungal paper disk test, diameter of clear zone; assay type: cell-based; conditions: 0.25 μg/disk; Appl'n Solvent DMSO
Aspergillus flavus [7] = assay: Antifungal paper disk test, diameter of clear zone; assay type: cell-based; conditions: 0.25 μg/disk; Appl'n Solvent DMSO
[8] = tested on: Aspergillus niger and Aspergillus flavus; assay: Antifungal activity; assay type: cell-based; conditions: in words; 10 μg/disk
NB-4 leukemic cell line = assay: MTT assay; assay type: cell-based, human; conditions: NB-4, 48 h, read-out: MTT50
Protocol: as §1, §2, §3, §4

[9] = tested on: WI38 non-transformed diploid fibroblasts; assay: MTT assay; assay type: cell-based, human; conditions: for IC50: WI38 (normal), 48 h, read-out: MTT50
Protocol: as §1, §2, §3, §4

KK leukemic cell line [10] = assay: Fixed propidium iodide staining, flow cytometry; assay type: cell-based, human; conditions: dose 129.6 uM (ug/mL), 48 h
Protocol: (§7) Adherent cell lines were plated at 35×10^4 cells/60 cm^2 dish the day before exposure to compound. Suspension cells were seeded at 25×10^4 cells/mL in a 6 well dish (Falcon) the day of exposure to compound. Mononucleated, T-cell depleted normal bone marrow cells were seeded at 50×10^4 cells/mL in a 6 well dish the day of exposure to compound. Cells were exposed to solvent control or approximate MTT50 and MTT30 concentrations of the compound. After 48 h of exposure to the compound, cells were harvested, fixed in 80% ethanol for 1 h on ice and labeled with 50 μg/mL propidium iodide (Sigma). Approximately 10^6 cells were analyzed using a XL-MCL flow cytometer (Coulter Corporation, Miami, Fla.) and a FACScalibar cytometer (Becton Dickinson, San Jose, Calif.). Profiles shown are a representative.
as §7, with “cm2” for “cm^2”, “concentrations.” for “concentrations of the compound.”, “representative. Cell viability counts and Pi staining were performed as previously described (Dimitroulakos, J, Nohynek, D, Backway, K L, Hedley, D W, Yeger, H, Freedman, M H, Minden, M D and Penn, L Z: Increased sensitivity of acute myeloid leukemias to lovastatin-induced apoptosis: A potential therapeutic approach. Blood 93: 1308-18, 1999).” for “representative.”

AML-3 leukemic cell line [11] = assay: Fixed propidium iodide staining, flow cytometry; assay type: cell-based, human; conditions: dose 129.6 uM (ug/mL), 48 h
Protocol: as §7
as §7, with “cm2” for “cm^2”, “concentrations.” for “concentrations of the compound.”, “representative. Cell viability counts and Pi staining were performed as previously described (Dimitroulakos, J, Nohynek, D, Backway, K L, Hedley, D W, Yeger, H, Freedman, M H, Minden, M D and Penn, L Z: Increased sensitivity of acute myeloid leukemias to lovastatin-induced apoptosis: A potential therapeutic approach. Blood 93: 1308-18, 1999).” for “representative.”

[12] = tested on: Aspergillus niger and Aspergillus flavus; assay: Antifungal activity; assay type: cell-based; conditions: in words; dose not given
Protocol: as §5
For the test, 6 agar plugs (5 mm diameter) were cut from a 5-8 day old colony and homogenized in distilled, sterilized water (2 ml). A portion of this suspension (0.5 ml) was transferred aseptically to a Petri plate with Sabouraud Dextrose Agar (15 ml) and spread evenly over the entire surface. Each plate was supplied with four evenly spaced paper disks (7 mm, Whatman Number 1 filter paper) containing the test compound (0, 25, 50 and 100 μg respectively). Each test compound was applied to the disks as a solution (50 mg compound/10 ml acetone). Control disks were treated with neat acetone (20 μl). Test plates with fungal homogenates and disks were incubated at 18-20° C. for 2 days. For each test four replicate plates were used. The diameter of the clear zone surrounding the disk was taken as the indicator of antifungal activity.

[13] = 0.25 μg/disk, Appl'n Solvent Acetone
[14] = Homo sapiens, AML3, 48 h, AML-3, read-out: MTT50

Compound: CS(=O)(=O)Sc1ccccc1 [L, Phenyl Methanethiosulfonate]
IC50 [1]: 44.2 µM
Diameter (mm) of clear Zone A. niger (Aspergillus niger [2]; 25 μg/disk, acetone): 0 mm
Diameter (mm) of clear Zone A. flavus (Aspergillus flavus [3]; 25 μg/disk, acetone): 3.7 mm
IC50 (B1 leukemic cell line): 6.34 µM
IC50 (G2 leukemic cell line): 3.8 µM
IC50 (W1 leukemic cell line): 7.26 µM
IC50 (KK leukemic cell line [4]): 6.3 µM
IC50 (AML-3 leukemic cell line [5]; AML-3, 48 h, read-out: MTT50): 7.46 µM

Compound: CCC(=O)OCSSCOC(=O)CC [(C2H5C(O)OCH2S)2, 2,3-dithiabutane-1,4-dipropionate]
Diameter (mm) of clear Zone A. niger (Aspergillus niger [6]): 8.0 mm
Diameter (mm) of clear Zone A. niger (Aspergillus niger [2]; [13]): 3.6 mm
Diameter (mm) of clear Zone A. flavus (Aspergillus flavus [3]; [13]): 6.7 mm
Diameter (mm) of clear Zone A. flavus (Aspergillus flavus [7]): 6.1 mm

Compound: CSSc1ccccc1[N+](=O)[O-] [o-O2N(C6H4)SSCH3, methyl o-nitrophenyl disulphide]
zone of inhibition at 10 µg/disc (Aspergillus niger [2]; Aspergillus niger, 10 μg/disk, acetone): 2.8 mm
zone of inhibition at 10 µg/disc (Aspergillus flavus [3]; Aspergillus flavus, 10 μg/disk, acetone): 1.9 mm
Antifungal activity / fungitoxicity [8]: pronounced toxicity

Compound: C[C@@H]1[C@H](O)[C@@H](C)/C=C/C=C/C=C/C=C/C=C/C=C/C=C/[C@H](O[C@@H]2O[C@H](C)[C@@H](O)[C@H](N)[C@@H]2O)C[C@@H]2O[C@](O)(C[C@@H](O)C[C@@H](O)[C@H](O)CC[C@@H](O)C[C@@H](O)CC(=O)O[C@H]1C)C[C@H](O)[C@H]2C(=O)O [Amphotericin B, reference compound]
Diameter (mm) of clear Zone A. niger (Aspergillus niger [6]): 4.2 mm
Antifungal activity [12]: most potent of the 3 commercial antifungals tested
Diameter (mm) of clear Zone A. flavus (Aspergillus flavus [7]): 4.1 mm

More lines, main results first:

melting point: 34.8 to 35.3 °C
Compound: CSSCCCS(C)(=O)=O [CH3SO2CH2CH2CH2SSCH3, 2,3,7-trithiaoctane 7,7-dioxide]
zone of inhibition at 100 µg/disc (Aspergillus niger [2]; Aspergillus niger, acetone): 0 mm
zone of inhibition at 100 µg/disc (Aspergillus flavus [3]; Aspergillus flavus, acetone): 0 mm

IC50 (B1 leukemic cell line; Homo sapiens): 57.4 µM
IC50 (NB-4 leukemic cell line; Homo sapiens): 62.9 µM
IC50 (KK leukemic cell line [4]; Homo sapiens): 96.9 µM
IC50 (AML-3 leukemic cell line [5]; AML-3, 48 h, read-out: MTT50): 44.1 µM
IC50 (AML-3 leukemic cell line [5]; [14]): 55.8 µM
Compound: COC(=O)CSSCC(=O)OC [O, dimethyl 3,4-dithiaadipate]
IC50 ([1]; T-cell): > 100 µM
zone of inhibition at 100 µg/disc (Aspergillus niger [2]; Aspergillus niger, acetone): 0 mm
zone of inhibition at 100 µg/disc (Aspergillus flavus [3]; Aspergillus flavus, acetone): 0 mm
IC50 ([9]; Homo sapiens, WI-38, 48 h): 73.9 µM

IC50 (KK leukemic cell line [4]; Homo sapiens): > 162 µM
IC50 (AML-3 leukemic cell line [5]; [14]): > 162 µM
Compound: CSCSCSC [J, 2,4,6-trithiaheptane]
IC50 ([1]; T-cell): > 162 µM
% pre-G1 (Fixed PI) (KK leukemic cell line [10]): 2.6%
% pre-G1 (Fixed PI) (AML-3 leukemic cell line [11]): 0.2%
Antifungal activity [12]: do not possess antiproliferative activity on either fungal or mammalian cells
zone of inhibition at 100 µg/disc (Aspergillus niger [2]; Aspergillus niger, acetone): 0 mm
zone of inhibition at 100 µg/disc (Aspergillus flavus [3]; Aspergillus flavus, acetone): 0 mm
IC50 ([9]; Homo sapiens, WI-38, 48 h): > 162 µM
Viability of non-transformed human WI38 fibroblasts following exposure ([9]; in words): not affected

IC50 (B1 leukemic cell line): 6.07 µM
IC50 (G2 leukemic cell line): 6.61 µM and 5.8 µM
IC50 (NB-4 leukemic cell line): 6.36 µM and 7.8 µM
IC50 (KK leukemic cell line [4]): 6.6 µM
IC50 (AML-3 leukemic cell line [5]; AML-3, 48 h, read-out: MTT50): 4.6 µM
Compound: CCCCCSSCS(C)(=O)=O [K]
IC50 [1]: 22 µM
IC50 [9]: 19 µM
